Values quoted from earlier work as cited in patent US4925674A (hiMedics, Inc., priority 1988, dated 1990).

Details: well known

## CC1(C)S[C@@H]2[C@H](NC(=O)[C@H](N)c3ccc(O)cc3)C(=O)N2[C@H]1C(=O)O [Amoxicillin, amoxicillin]
  dose-related gastrointestinal upsets: dose-related gastrointestinal upsets (epigastric distress, nausea, vomiting, and especially diarrhea) occur commonly
